# Several values for one entry are separate records, joined by “and”; a condition that tells them apart may be missing. Equal entries are not always repeated. Where two headings read alike, the source gives them in different places. Marks after values point to notes of the source that are not given here.
# Columns and labels:
# COX-2 [1] = target: T1, COX-2 (Homo sapiens, UniProt P35354); conditions: cited from earlier work; for COX-2 selectivity COX-1/COX-2: ratio of IC50, recombinant human enzymes; for IC50: read-out: COX-2 IC50
# T1 sequence (P35354 18-604): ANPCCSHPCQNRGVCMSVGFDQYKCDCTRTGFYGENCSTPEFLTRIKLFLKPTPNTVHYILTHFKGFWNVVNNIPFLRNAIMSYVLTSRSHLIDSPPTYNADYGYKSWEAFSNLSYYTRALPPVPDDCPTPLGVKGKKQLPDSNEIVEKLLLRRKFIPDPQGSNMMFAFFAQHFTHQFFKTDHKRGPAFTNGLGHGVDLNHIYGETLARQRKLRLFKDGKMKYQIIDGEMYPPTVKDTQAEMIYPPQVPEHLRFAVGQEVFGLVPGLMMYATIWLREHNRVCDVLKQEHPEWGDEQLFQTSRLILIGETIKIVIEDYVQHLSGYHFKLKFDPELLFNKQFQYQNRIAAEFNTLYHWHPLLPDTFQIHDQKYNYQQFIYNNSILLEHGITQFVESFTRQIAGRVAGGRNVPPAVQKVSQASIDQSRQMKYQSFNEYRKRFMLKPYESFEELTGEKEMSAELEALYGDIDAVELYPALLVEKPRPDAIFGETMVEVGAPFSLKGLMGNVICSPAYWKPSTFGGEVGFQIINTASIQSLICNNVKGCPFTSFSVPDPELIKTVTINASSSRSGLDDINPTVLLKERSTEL
# COX-1 [2] = target: COX-1 (Homo sapiens, UniProt P23219); conditions: recombinant human PGH synthesis; Laneuvill et al. 1994; cited from earlier work
# COX-2 [3] = target: T2, COX-2 (Mus musculus, UniProt Q05769); conditions: cited from earlier work; for IC50: read-out: COX-2 IC50
# T2 construct: endogenous in cells
# T2 sequence (Q05769 18-604): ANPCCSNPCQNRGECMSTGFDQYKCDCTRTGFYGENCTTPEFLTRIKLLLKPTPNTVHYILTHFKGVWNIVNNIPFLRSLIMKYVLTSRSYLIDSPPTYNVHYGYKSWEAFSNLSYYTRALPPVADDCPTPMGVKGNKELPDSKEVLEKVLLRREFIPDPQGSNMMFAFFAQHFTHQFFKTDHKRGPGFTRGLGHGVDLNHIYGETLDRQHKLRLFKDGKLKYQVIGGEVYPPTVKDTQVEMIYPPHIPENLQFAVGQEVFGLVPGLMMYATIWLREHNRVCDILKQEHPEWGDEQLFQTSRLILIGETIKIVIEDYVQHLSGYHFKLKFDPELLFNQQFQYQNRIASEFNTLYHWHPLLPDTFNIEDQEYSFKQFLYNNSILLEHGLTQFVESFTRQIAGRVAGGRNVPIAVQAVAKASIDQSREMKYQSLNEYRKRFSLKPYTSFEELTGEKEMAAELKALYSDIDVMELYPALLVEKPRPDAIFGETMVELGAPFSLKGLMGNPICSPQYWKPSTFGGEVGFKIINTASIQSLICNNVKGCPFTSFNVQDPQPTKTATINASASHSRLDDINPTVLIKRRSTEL
# COX-1 [4] = target: T3, COX-1 (Bos taurus, UniProt O62664)
# T3 construct: IC50 values for NSAID's in intact cell on COX-1; endogenous in cells; host or cells: bovine endothelial cells
# T3 sequence (O62664 25-600): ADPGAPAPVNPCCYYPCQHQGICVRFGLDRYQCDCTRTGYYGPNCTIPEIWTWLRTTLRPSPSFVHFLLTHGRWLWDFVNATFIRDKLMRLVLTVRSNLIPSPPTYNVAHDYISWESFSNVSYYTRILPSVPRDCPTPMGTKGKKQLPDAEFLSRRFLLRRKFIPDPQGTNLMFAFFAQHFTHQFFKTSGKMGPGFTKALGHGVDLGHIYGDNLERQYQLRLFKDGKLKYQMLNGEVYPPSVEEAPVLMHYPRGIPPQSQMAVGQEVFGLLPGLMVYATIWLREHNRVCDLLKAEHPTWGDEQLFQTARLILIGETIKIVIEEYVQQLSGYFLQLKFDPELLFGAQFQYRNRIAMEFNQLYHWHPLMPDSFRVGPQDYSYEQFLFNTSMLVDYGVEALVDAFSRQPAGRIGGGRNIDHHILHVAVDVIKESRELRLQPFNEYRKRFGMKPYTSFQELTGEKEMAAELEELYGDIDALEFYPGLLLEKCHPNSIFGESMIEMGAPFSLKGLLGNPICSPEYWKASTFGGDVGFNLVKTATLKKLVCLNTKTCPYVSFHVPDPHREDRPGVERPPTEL
# COX-1 [5] = target: COX-1 (Cavia porcellus, UniProt H0V9X9); conditions: read-out: COX-1 IC50; guinea pig macrophage model; Engelhart et al. 1995; cited from earlier work
# [6] = system: lymph node mononuclear cells from MAIDS and control mice; assay: anti-CD3 induced T cell proliferation in mixed unsorted lymph node cells, compound added in vitro; assay type: cell-based, mouse
# Description: T cell activation was accomplished by cross-ligation of anti-CD3 (mAb 2C11; 4 μg/ml). […] Cells were cultured for 72 h during which [^3H] -thymidine was included for the last 4 h;
# T cell activation was accomplished by cross-ligation of anti-CD3 (mAb 2C11; 4 μg/ml). […] Cells were cultured for 72 h during which [^3H ]-thymidine was included for the last 4 h;
# The optimal concentration of antibody was titrated carefully in the initial setup and parallel experiments at several different dilutions of antibody was always performed. Proliferation was analyzed by incubating cells for 72 hours during which [^3H]-thymidine (0.4 μCi) was included for the last 4 hours and collected with a cell harvester (Skatron, Sterling, Va., USA) onto glass fiber filters. Incorporated precursor was counted in a scintillation analyzer (Tri-Carb, Packard, Meriden, Conn., USA). cAMP analogs, when used, were added 30 min prior to activation by addition of anti-CD3 antibodies.
# HIV infected patients = assay: phase II clinical trial, indomethacin in vivo, T cell proliferation after activation; conditions: for T cell immune function, patients responding: 7 patients
# Description: T cell activation was accomplished by cross-ligation of anti-CD3 (mAb SpVT3b). […] Bars show mean values±SD from triplicate determinations. Cells were cultured for 72 h during which [^3H]-thymidine was included for the last 16 h;
# Mean values from triplicate determinations are plotted, connector lines show development of each patient;
# Peripheral blood CD3+ T cells were purified by negative selection from buffycoats from normal healthy donors (Ullevaal University Hospital Blood Center, Oslo, Norway). Briefly, peripheral blood mononuclear cells were isolated by density gradient (Lymphoprep, NycoMed, Oslo, Norway) centrifugation followed by negative selection using monodisperse magnetic beads directly coated with antibodies to CD14 and CD19 and rat anti-mouse IgG beads coated with antibodies to CD56 and a magnet. […] All steps were performed at 4° C.
# Proliferation assays were performed by incubation of 0.75×10^6 CD3+ T cells/ml in a 100 μl volume in flat-bottom 96-well microtiter plates. […] The optimal concentration of antibody was titrated carefully in the initial setup and parallel experiments at several different dilutions of antibody were always performed. Proliferation was analyzed by incubating cells for 72 hours during which [^3H]-thymidine was included for the last 16 hours. Cells were washed and harvested onto glass filters and subsequently analyzed by β-scintillation counting. CAMP analogs, when used, were added 30 min prior to activation by addition of anti-CD3 antibodies. 8-CPT-cAMP was from Sigma (St. Louis, Mo.).
# [7] = system: CD3+ T cells from MAIDS and control mice; assay: TCR/CD3 stimulated proliferation of isolated T cells, [3H]-thymidine incorporation; assay type: cell-based, mouse; conditions: median, read-out: Inhibition of proliferation by 8-CPT-cAMP (IC50)
# Description: TCR/CD3 stimulated T cell proliferation was assessed with isolated T cells from MAIDS mice (A) and uninfected control mice (B). The effect of increasing concentrations of cAMP agonist (8-CPT-cAMP) on TCR/CD3 stimulated proliferation of CD3+ T cells isolated from MAIDS (open circles, dotted line) and control mice (filled circles and solid line) was examined separately in the same experiments (C). Mean values of triplicate determinations±SD are shown. See Table 4 for summarised data (n=11). Note: Scaling differs in A and B, whereas in C the TCR/CD3 induced proliferation in the absence of cAMP agonist is normalized to 100% for both MAIDS and control T cells;
# Activation was achieved by subsequent addition of monodisperse magnetic beads coated with sheep anti-mouse IgG (Dynal, cat. no. 110.02) at a cell:bead ratio of 1:1 followed by addition of anti-CD3 (clone 2C11) at a final dilution of 4 μg/ml for the experiments shown. […] 8-CPT-cAMP was from Sigma (St. Louis, Mo.) and Sp- and Rp-8-Br-cAMPS were from BioLog Life Science Company (Bremen, Germany) and were all dissolved to concentrations of 4 to 10 mM in PBS and concentrations calculated using the extinction coefficients given by the manufacturer.
# [8] = read-out: COX-1 IC50; intact cell, bovine endothelial cells; Taketo 1998; cited from earlier work
# [9] = recombinant human PGH synthesis, Laneuvill et al. 1994
# [10] = intact cell, bovine endothelial cells; Taketo 1998; read-out: COX-1 IC50; cited from earlier work
# [11] = intact cell, stimulated macrophages, Taketo 1998
# Chain of COX-1 (Homo sapiens, UniProt P23219) (P23219 24-599): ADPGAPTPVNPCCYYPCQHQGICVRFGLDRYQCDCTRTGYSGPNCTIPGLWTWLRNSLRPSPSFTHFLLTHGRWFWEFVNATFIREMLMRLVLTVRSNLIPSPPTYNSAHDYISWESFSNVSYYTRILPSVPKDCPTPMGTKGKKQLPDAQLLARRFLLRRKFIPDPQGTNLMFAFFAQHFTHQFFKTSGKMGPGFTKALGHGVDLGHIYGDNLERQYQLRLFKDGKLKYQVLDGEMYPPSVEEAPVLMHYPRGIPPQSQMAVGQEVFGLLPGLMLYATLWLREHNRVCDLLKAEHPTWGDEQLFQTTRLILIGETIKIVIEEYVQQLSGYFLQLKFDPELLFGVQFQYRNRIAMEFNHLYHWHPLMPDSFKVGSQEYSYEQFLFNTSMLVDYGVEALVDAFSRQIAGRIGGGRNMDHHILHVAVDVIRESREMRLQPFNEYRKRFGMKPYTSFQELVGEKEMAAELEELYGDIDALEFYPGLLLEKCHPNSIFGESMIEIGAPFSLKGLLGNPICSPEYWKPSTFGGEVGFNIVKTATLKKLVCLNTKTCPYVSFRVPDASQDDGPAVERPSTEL
# Chain of COX-1 (Cavia porcellus, UniProt H0V9X9) (H0V9X9 entry or part of it): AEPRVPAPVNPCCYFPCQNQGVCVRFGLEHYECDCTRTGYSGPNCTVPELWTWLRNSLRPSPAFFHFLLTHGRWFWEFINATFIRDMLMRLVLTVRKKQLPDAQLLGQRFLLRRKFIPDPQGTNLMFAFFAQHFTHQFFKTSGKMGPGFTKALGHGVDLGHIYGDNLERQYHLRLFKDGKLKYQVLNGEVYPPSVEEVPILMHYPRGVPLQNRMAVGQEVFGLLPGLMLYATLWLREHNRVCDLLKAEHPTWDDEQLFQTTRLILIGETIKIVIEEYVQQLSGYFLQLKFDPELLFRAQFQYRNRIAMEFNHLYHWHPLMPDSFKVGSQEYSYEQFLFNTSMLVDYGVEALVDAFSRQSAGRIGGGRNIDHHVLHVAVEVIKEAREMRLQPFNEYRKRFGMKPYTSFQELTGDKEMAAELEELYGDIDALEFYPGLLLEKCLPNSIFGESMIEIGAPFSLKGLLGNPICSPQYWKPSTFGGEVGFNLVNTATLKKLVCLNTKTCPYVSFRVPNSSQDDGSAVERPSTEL
compound,measurement,setting,value
O=C(c1ccccc1)c1ccc2n1CCC2C(=O)O (stereo not drawn) [Ketorolac tromethamine],COX-2 selectivity COX-1/COX-2,COX-2 [1],0.5
same,IC50,COX-1 [2],31.5 µM
COc1ccc2cc([C@H](C)C(=O)O)ccc2c1 [Naproxen],IC50,COX-2 [3],1.3 µM
NC1=NN(c2cccc(C(F)(F)F)c2)CC1 [BW 755C],IC50,COX-1 [4]; [8],0.65 µM
COc1ccc2cc(CC(=O)O)ccc2c1 [6-MNA],COX-2 selectivity COX-1/COX-2,COX-2 [1],0.7
same,IC50,COX-2 [1]; [9],93.5 µM
same,IC50,COX-1 [2],64 µM
COc1ccc2c(c1)c(CC(=O)O)c(C)n2C(=O)c1ccc(Cl)cc1 [Indomethacin],IC50,COX-1 [5],0.00021 µM
same,"T cell proliferation, Indomethacin","[6]; MAIDS mice, median, n = 7, no anti-CD3",1412
same,"T cell proliferation, Indomethacin/Anti-CD3","[6]; MAIDS mice, median, n = 8, anti-CD3 plus indomethacin",15601**
same,effect on anti-CD3 induced proliferation,"[6]; control cultures of uninfected mice, indomethacin",did not alter proliferation
same,"T cell proliferation, Indomethacin/Anti-CD3","[6]; individual MAIDS mice, anti-CD3 plus indomethacin 50 ng/ml",19624 and 31830 and 42244 and 9381 and 47926 and 1345 and 11579 and 8545
same,"T cell proliferation, Indomethacin","[6]; individual MAIDS mice, no anti-CD3, indomethacin 50 ng/ml",2363 and 7316 and 1412 and 1129 and 265 and 335 and 4317
same,effect on anti-CD3 induced proliferation,"[6]; mixed lymph node cells of five MAIDS-infected mice, 72 h",strongly increased the proliferation of cells from five MAIDS-infected mice to levels comparable to that of control mice
same,"T cell immune function, patients responding","HIV infected patients; after 14 days of treatment, 25 mg three times a day",two of seven patients had clearly elevated T cell immune function
same,"T cell immune function, patients responding","HIV infected patients; two weeks after discontinuation, versus day 0",five of seven patients had elevated immune responsiveness
same,adverse events,"HIV infected patients; HIV patients, 50 mg 3 times a day",epigastrial pain and dyspepsia
same,increase of T cell responses after in vivo treatment,"HIV infected patients; patient 3, 25 mg three times a day perorally, 14 days, persisted to day 28",approximately 2.5 fold
same,T cell immune function after in vivo treatment,"HIV infected patients; patients 1 and 2, 25 mg three times a day perorally, 14 days",did not increase their immune function
NC(=O)N1C(=O)/C(=C(\O)c2cccs2)c2cc(Cl)ccc21 [Teridep],IC50,COX-1 [5],0.393 µM
Cc1ccc(Cl)c(Nc2ccccc2C(=O)O)c1Cl [Meclofenemate],COX-2 selectivity COX-1/COX-2,COX-2 [1],0.15
same,IC50,COX-2 [1]; [9],9.7 µM
same,IC50,COX-1 [2],1.5 µM
O=C([O-])c1ccccc1O.[Na+] [Sodium salicylate],IC50,COX-1 [4]; [10],35 µM
same,IC50,COX-2 [3]; [11],100 µM
same,COX-2 selectivity COX-1/COX-2,"COX-2 [3]; ratio of IC50, intact cells",0.35
CCc1cccc2c3c([nH]c12)C(CC)(CC(=O)O)OCC3 (stereo not drawn) [Etodolac],IC50,COX-2 [1],60 µM
Cc1c(Cl)cccc1Nc1ccccc1C(=O)O [Tolfenamic acid],IC50,COX-1 [4]; [10],0.0003 µM
same,IC50,COX-2 [3]; [11],0.005 µM
same,COX-2 selectivity COX-1/COX-2,"COX-2 [3]; ratio of IC50, intact cells",0.06
CCCCC1C(=O)N(c2ccccc2)N(c2ccccc2)C1=O [Phenylbutazone],IC50,COX-2 [1]; [9],> 100 µM
O=C(O)c1ccccc1O [Salicyclic acid],IC50,COX-2 [1]; [9],> 1000 µM
same,IC50,COX-1 [2],> 1000 µM
O=C(O)Cc1ccccc1Nc1c(Cl)cccc1Cl [Diclofenac],IC50,COX-1 [5],0.000855 µM
CN1C(C(=O)Nc2ccccn2)=C(O)c2ccccc2S1(=O)=O [Piroxicam],IC50,COX-1 [5],0.00527 µM
CC/C=C\C/C=C\C/C=C\C/C=C\C/C=C\C/C=C\CCC(=O)O [DHA (22:6)],COX-2 selectivity COX-1/COX-2,COX-2 [1],0.6
same,IC50,COX-2 [1]; [9],41 µM
same,IC50,COX-1 [2],25.6 µM
CN1OCC/C(=C\c2cc(C(C)(C)C)c(O)c(C(C)(C)C)c2)C1=O [BF 389],IC50,COX-1 [4]; [10],0.15 µM
same,IC50,COX-2 [3]; [11],0.03 µM
same,COX-2 selectivity COX-1/COX-2,"COX-2 [3]; ratio of IC50, intact cells",5
Nc1ncnc2c1nc(Sc1ccc(Cl)cc1)n2[C@@H]1O[C@@H]2COP(=O)(O)O[C@H]2[C@H]1O [8-CPT-cAMP],IC50,"[7]; MAIDS mice, n = 5",0.22 µM
same,IC50,"[7]; control mice, n = 4",0.4 µM
CC(C(=O)O)c1ccc2c(c1)[nH]c1ccc(Cl)cc12 (stereo not drawn) [Carprofen],IC50,COX-1 [4]; [8],3 µM
same,COX-2 selectivity COX-1/COX-2,COX-2 [3],1
same,IC50,COX-2 [3],3 µM
CC(C(=O)O)c1ccc(-c2ccccc2)c(F)c1 (stereo not drawn) [Flubiprofen],IC50,COX-1 [4]; [10],0.02 µM
CC(=O)Nc1ccc(O)cc1 [Acetaminophen],IC50,COX-1 [4]; [10],2.7 µM

# From US7790738B2, “Methods of treating and preventing AIDS using of COX-2 inhibitors” (Lauras AS, priority 2000, dated 2010)
